Drawing on patent publication US20240270715A1, “INHIBITORS OF TRANSGLUTAMINASES” (ZEDIRA GMBH, priority 2021, published 2024), this text covers logD, Papp and IC50 for 16 compounds.

Structures are written as SMILES.

Data set [1] can be described thus: Log D by shake flask method (octanol / PBS pH 7.4, HPLC). The conditions noted are these: octanol / PBS pH 7.4, shake flask; read-out: logD. Type of data set: physicochemical. A digest of the protocol:
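Shake-flask partitioning of compound between octanol and PBS at pH 7.4, with phase concentrations quantified by HPLC. The value reported is Log D.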

Data set [2] can be described thus: Caco-2 permeability assay (CacoReady kit). Type of data set: in vitro ADME. The conditions noted are these: human. A digest of the protocol: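 Papp values come from Caco-2 barrier studies intended to predict oral bioavailability; the manufacturer's procedure for the ready-made kit was followed.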
The target of data set [3] is T1, recombinant human transglutaminase 2 (Homo sapiens, UniProt P21980).
T1 sequence (P21980 1-687): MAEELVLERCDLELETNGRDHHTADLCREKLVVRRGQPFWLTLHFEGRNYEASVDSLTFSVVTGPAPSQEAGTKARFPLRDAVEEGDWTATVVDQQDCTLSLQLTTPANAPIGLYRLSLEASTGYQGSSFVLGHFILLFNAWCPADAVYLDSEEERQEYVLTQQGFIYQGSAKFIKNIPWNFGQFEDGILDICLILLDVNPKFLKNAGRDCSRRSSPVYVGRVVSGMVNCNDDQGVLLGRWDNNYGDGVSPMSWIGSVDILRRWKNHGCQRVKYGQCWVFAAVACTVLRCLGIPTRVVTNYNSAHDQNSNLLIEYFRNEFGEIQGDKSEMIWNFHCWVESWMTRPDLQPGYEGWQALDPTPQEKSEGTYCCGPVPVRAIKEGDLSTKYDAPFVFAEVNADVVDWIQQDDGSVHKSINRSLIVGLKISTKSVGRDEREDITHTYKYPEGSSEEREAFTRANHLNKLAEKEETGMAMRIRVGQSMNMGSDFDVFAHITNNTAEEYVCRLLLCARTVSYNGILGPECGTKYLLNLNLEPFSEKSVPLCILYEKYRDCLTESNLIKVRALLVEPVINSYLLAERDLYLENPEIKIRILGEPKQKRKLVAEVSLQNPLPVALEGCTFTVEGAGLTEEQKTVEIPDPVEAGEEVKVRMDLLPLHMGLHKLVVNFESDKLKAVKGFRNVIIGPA
Nature of the data set: Transglutaminase assay: incorporation of dansylcadaverine into dimethylcasein (DCC-assay). Format: biochemical. The conditions noted are these: recombinant human TG2 10 nM, dansylcadaverine/dimethylcasein; read-out: IC50 TG2. A digest of the protocol: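 Recombinant human TG2 (10 nM final) incorporates dansylcadaverine (16.7 μM) into N,N-dimethylcasein (4 μM) in Tris-HCl buffer, pH 8.0, with 10 mM CaCl2 and 10 mM glutathione. Fluorescence (λex 330, λem 500 nm) followed 30 min. The slope between 20–30 min gives activity versus DMSO control, and IC50 comes from the concentration–activity plot.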

Consider `CCNC(=O)C(=O)CC[C@H](NC(=O)c1cnc2ccc(OC(F)(F)F)cc2c1O)C(=O)Nc1cccn(CC(=O)N[C@@H]2C[C@@H]3CC[C@H]2C3)c1=O` [Compound I-99, (S)-N1-(1-(2-((1S,2R,4R)-bicyclo[2.2.1]heptan-2-ylamino)-2-oxoethyl)-2-oxo-1,2-dihydropyridin-3-yl)-N6-ethyl-2-(4-hydroxy-6-(trifluoromethoxy)quinoline-3-carboxamido)-5-oxohexanediamide], for which the logD in data set [1] fell in the range of 3 to 5. Moreover, the Papp in data set [2] was less than 1 ×10⁻⁶ cm/s. For the same compound, the IC50 in data set [3] lay within 600 to 3500 nM.
For `CCNC(=O)C(=O)CC[C@H](NC(=O)c1csc2nc(C)cn12)C(=O)Nc1cccn(CC(=O)NC2C3CC4CC(C3)CC2C4)c1=O` (stereo partly drawn) [Compound I-96, (S)-N1-ethyl-N6-(1-(2-(2-adamantylamino)-2-oxoethyl)-2-oxo-1,2-dihydropyridin-3-yl)-5-(6-methylimidazo[2,1-b]thiazole-3-carboxamido)-2-oxohexanediamide], in that order: 3 to 5, less than 1 ×10⁻⁶ cm/s and 600 to 3500 nM.
For `CCNC(=O)C(=O)CC[C@H](NC(=O)c1c(C)ncn1C)C(=O)Nc1cccn(CC(=O)NC23CC4CC(C)(CC(C)(C4)C2)C3)c1=O` [Compound I-21, (S)-2-(1,4-dimethyl-1H-imidazole-5-carboxamido)-N6-ethyl-N1-(1-(2-(3,5-dimethyladamantane-1-amino)-2-oxoethyl)-2-oxo-1,2-dihydropyridin-3-yl)-5-oxohexanediamide], in that order: 1 to 3, less than 1 ×10⁻⁶ cm/s and 600 to 3500 nM.
The matching figures for `CCNC(=O)C(=O)CC[C@H](NC(=O)C1CCc2ccccc2C1)C(=O)Nc1cccn(CC(=O)NC2C3CC4CC2CC(C(=O)N(C)C)(C4)C3)c1=O` (stereo partly drawn) [Compound I-93, (5S)-N1-ethyl-N6-(1-(2-(4-aminoadamantane-N,N-dimethyl-1-carboxamide)-2-oxoethyl)-2-oxo-1,2-dihydropyridin-3-yl)-2-oxo-5-(1,2,3,4-tetrahydronaphthalene-2-carboxamido)hexanediamide]: less than 1, less than 1 ×10⁻⁶ cm/s and 150 to 600 nM.
Take `CCNC(=O)C(=O)CC[C@H](NC(=O)c1cncn1C)C(=O)Nc1cccn(CC(=O)NC23CC4CC(C2)CC(C(=O)OC)(C4)C3)c1=O` [Compound I-11, (S)-N1-ethyl-N6-(1-(2-(3-methyladamantane-3-carboxylate-1-amino)-2-oxoethyl)-2-oxo-1,2-dihydropyridin-3-yl)-5-(1-methyl-1H-imidazole-5-carboxamido)-2-oxohexanediamide]: in data set [1], the logD was less than 1. Further, the Papp in data set [2] was less than 1 ×10⁻⁶ cm/s. For the same compound, the IC50 in data set [3] was 150 to 600 nM.
The matching figures for `CCNC(=O)C(=O)CC[C@H](NC(=O)c1oc2ccccc2c1C)C(=O)Nc1cccn(CC(=O)N[C@@H]2C[C@@H]3CC[C@H]2C3)c1=O` [Compound I-68, (S)-N1-(1-(2-((1S,2R,4R)-bicyclo[2.2.1]heptan-2-ylamino)-2-oxoethyl)-2-oxo-1,2-dihydropyridin-3-yl)-N6-ethyl-2-(3-methylbenzofuran-2-carboxamido)-5-oxohexanediamide]: 1 to 3, 1 to 10 ×10⁻⁶ cm/s and less than 150 nM.
The matching figures for `CCNC(=O)C(=O)CC[C@H](NC(=O)[C@@H]1CN2CCN1CC2)C(=O)Nc1cccn(CC(=O)NC2C3CC4CC(C3)CC2C4)c1=O` (stereo partly drawn) [Compound I-94, (S)-2-((S)-1,4-diazabicyclo[2.2.2]octane-2-carboxamido)-N6-ethyl-N1-(1-(2-(2-adamantylamino)-2-oxoethyl)-2-oxo-1,2-dihydropyridin-3-yl)-5-oxohexanediamide]: 1 to 3, less than 1 ×10⁻⁶ cm/s and 600 to 3500 nM.
The matching figures for `CCNC(=O)C(=O)CC[C@H](NC(=O)c1cc2c(Br)cccc2o1)C(=O)Nc1cccn(CC(=O)NC2C3CC4CC(C3)CC2C4)c1=O` (stereo partly drawn) [Compound I-33, (S)-2-(4-bromobenzofuran-2-carboxamido)-N6-ethyl-N1-(1-(2-(2-adamantylamino)-2-oxoethyl)-2-oxo-1,2-dihydropyridin-3-yl)-5-oxohexanediamide]: 3 to 5, 1 to 10 ×10⁻⁶ cm/s and less than 150 nM.
Turning to `CCNC(=O)C(=O)CC[C@H](NC(=O)c1cncn1C)C(=O)Nc1cccn(CC(=O)NC[C@@H]2CC[C@@H]3C[C@H]2C3(C)C)c1=O` [Compound I-14, (S)-N1-(1-(2-(((1R,2R,5R)-6,6-dimethylbicyclo[3.1.1]heptan-2-yl)methylamino)-2-oxoethyl)-2-oxo-1,2-dihydropyridin-3-yl)-N6-ethyl-2-(1-methyl-1H-imidazole-5-carboxamido)-5-oxohexanediamide], the logD in data set [1] fell in the range of 1 to 3. This compound also displayed an apparent permeability coefficient (Papp) in data set [2] of less than 1 ×10⁻⁶ cm/s. Moreover, the half-inhibitory concentration (IC50) in data set [3] lay within 150 to 600 nM.
Take `CCNC(=O)C(=O)CC[C@H](NC(=O)c1cn(C2CCC2)cn1)C(=O)Nc1cccn(CC(=O)NC23CC4CC(CC(CC)(C4)C2)C3)c1=O` [Compound I-20, (S)-2-(1-cyclobutyl-1H-imidazole-4-carboxamido)-N6-ethyl-N1-(1-(2-(3-ethyladamantane-1-amino)-2-oxoethyl)-2-oxo-1,2-dihydropyridin-3-yl)-5-oxohexanediamide]: the logD in data set [1] fell in the range of 1 to 3. The same compound returned a Papp in data set [2] of less than 1 ×10⁻⁶ cm/s. Also, the half-inhibitory concentration (IC50) in data set [3] was in the range of 600 to 3500 nM.
For `CCNC(=O)C(=O)CC[C@H](NC(=O)[C@@H]1CCCCN1)C(=O)Nc1cccn(CC(=O)NC2C3CC4CC2CC(Cl)(C4)C3)c1=O` (stereo partly drawn) [Compound I-60, (S)-N1-ethyl-N6-(1-(2-(5-chloroadamantane-2-amino)-2-oxoethyl)-2-oxo-1,2-dihydropyridin-3-yl)-2-oxo-5-((S)-piperidine-2-carboxamido)hexanediamide], in that order: 1 to 3, less than 1 ×10⁻⁶ cm/s and 150 to 600 nM.
The matching figures for `CCNC(=O)C(=O)CC[C@H](NC(=O)c1cn(C)cn1)C(=O)Nc1cccn(CC(=O)NC23CC4CC(C)(CC(C)(C4)C2)C3)c1=O` [Compound I-22, (S)-N1-ethyl-N6-(1-(2-(3,5-dimethyladamantane-1-amino)-2-oxoethyl)-2-oxo-1,2-dihydropyridin-3-yl)-5-(1-methyl-1H-imidazole-4-carboxamido)-2-oxohexanediamide]: 1 to 3, less than 1 ×10⁻⁶ cm/s and 600 to 3500 nM.
For `CCNC(=O)C(=O)CC[C@H](NC(=O)c1sc(-c2ccccc2)nc1C)C(=O)Nc1cccn(CC(=O)NC2C3CC4CC(C3)CC2C4)c1=O` (stereo partly drawn) [Compound I-42, (S)-N1-ethyl-N6-(1-(2-(2-adamantylamino)-2-oxoethyl)-2-oxo-1,2-dihydropyridin-3-yl)-5-(4-methyl-2-phenylthiazole-5-carboxamido)-2-oxohexanediamide], in that order: 3 to 5, 1 to 10 ×10⁻⁶ cm/s and 150 to 600 nM.
For `CCNC(=O)C(=O)CC[C@H](NC(=O)c1snnc1C=O)C(=O)Nc1cccn(CC(=O)NC2C3CC4CC(C3)CC2C4)c1=O` (stereo partly drawn) [Compound I-120, (S)-N1-ethyl-5-(4-formyl-1,2,3-thiadiazole-5-carboxamido)-N6-(1-(2-(2-adamantylamino)-2-oxoethyl)-2-oxo-1,2-dihydropyridin-3-yl)-2-oxohexanediamide], the log distribution coefficient (logD) in data set [1] was less than 1. The Papp in data set [2] is less than 1 ×10⁻⁶ cm/s. Also, the IC50 in data set [3] was 150 to 600 nM.
Regarding `CCNC(=O)C(=O)CC[C@H](NC(=O)c1cc(Br)c(Cl)s1)C(=O)Nc1cccn(CC(=O)NC2C3CC4CC(C3)CC2C4)c1=O` (stereo partly drawn) [Compound I-52, (S)-2-(4-bromo-5-chlorothiophene-2-carboxamido)-N6-ethyl-N1-(1-(2-(2-adamantylamino)-2-oxoethyl)-2-oxo-1,2-dihydropyridin-3-yl)-5-oxohexanediamide], the logD in data set [1] lay in the range of 3 to 5. Also, in data set [2], the Papp lay in the range of 1 to 10 ×10⁻⁶ cm/s. Also, the IC50 in data set [3] is less than 150 nM.
The matching figures for `CCNC(=O)C(=O)CC[C@H](NC(=O)c1cnc(C)n1C)C(=O)Nc1cccn(CC(=O)NC23CC4CC(C)(CC(C)(C4)C2)C3)c1=O` [Compound I-24, (S)-2-(1,2-dimethyl-1H-imidazole-5-carboxamido)-N6-ethyl-N1-(1-(2-(3,5-dimethyladamantane-1-amino)-2-oxoethyl)-2-oxo-1,2-dihydropyridin-3-yl)-5-oxohexanediamide]: 1 to 3, less than 1 ×10⁻⁶ cm/s and 150 to 600 nM.

A word on the logD: it is the decadic logarithm of the distribution of all forms, ionised or not, between an organic phase and buffer at a given pH. The term Papp denotes the rate of passage across a membrane or cell layer, normalised by area and donor concentration. In general, IC50 refers to the midpoint of a concentration-inhibition curve.
